Reference: US20100204265A1 (priority 2009, published 2010)

Test system: ET (Huh-lucubineo-ET) cell line harboring I389luc-ubi-neo/NS3-3′/ET HCV replicon
Test: Replicon assay (HCV replicon, luciferase readout)
Assay type: cell-based
Conditions: Hepatitis C virus
Procedure, shortened: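 Compounds at 10-point 2-fold dilutions (overall 0.1 nM to […], 0.5% DMSO) were applied to ET cells carrying a luciferase-neo HCV replicon, seeded a day earlier. After 48-72 hours, luciferase-based % inhibition was fitted with a Hill equation for EC50, and parallel WST-1 readings gave TC50.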

Point of comparison: O=C(c1nc2c(C(F)(F)F)cc(-c3ccoc3)cn2c1Cl)N1CCC(Nc2ncccn2)C1 (centres unmarked) [Compound 183, (3-Chloro-6-furan-3-yl-8-trifluoromethyl-imidazo [1,2-a]pyridin-2-yl)-[3-(pyrimidin-2-ylamino)-pyrrolidin-1-yl]-methanone], EC50 55 µM. Against it:
- O=C(c1nc2c(C(F)(F)F)cc(-c3ccoc3)cn2c1Cl)N1CC=C(C2=CCNC2)CC1 [Compound 213, (3-Chloro-6-furan-3-yl-8-trifluoromethyl-imidazo[1,2-a]pyridin-2-yl)-[4-(2,5-dihydro-1H-pyrrol-3-yl)-3,6-dihydro-2H-pyridin-1-yl]-methanone] — 58-fold lower, 0.942 µM
- O=C1CCC=C1C1=CCN(C(=O)c2nc3c(C(F)(F)F)cc(-c4ccoc4)cn3c2Cl)CC1 [Compound 159, 2-[1-(3-Chloro-6-furan-3-yl-8-trifluoromethyl-imidazo[1,2-a]pyridine-2-carbonyl)-1,2,3,6-tetrahydro-pyridin-4-yl]-cyclopent-2-enone] — 220-fold lower, 0.247 µM
- O=C(c1nc2c(C(F)(F)F)cc(-c3ccoc3)cn2c1Cl)N1CCC(S(=O)(=O)c2ccccc2)CC1 [Compound 268, (4-Benzenesulfonyl-piperidin-1-yl)-(3-chloro-6-furan-3-yl-8-trifluoromethyl-imidazo[1,2-a]pyridin-2-yl)-methanone] — not separable, > 50 µM
- O=C(c1nc2c(C(F)(F)F)cc(-c3ccoc3)cn2c1Cl)N1CC=C(c2cncs2)C1 [Compound 106, (3-Chloro-6-furan-3-yl-8-trifluoromethyl-imidazo[1,2-a]pyridin-2-yl)-(3-thiazol-5-yl-2,5-dihydro-pyrrol-1-yl)-methanone] — 620-fold lower, 0.0886 µM
- O=C(c1nc2c(C(F)(F)F)cc(-c3cscn3)cn2c1Cl)N1CC=C(c2ncccc2F)CC1 [Compound 120, (3-Chloro-6-thiazol-4-yl-8-trifluoromethyl-imidazo[1,2-a]pyridin-2-yl)-(3-fluoro-3′,6′-dihydro-2′H-[2,4′]bipyridinyl-1′-yl)-methanone] — 18-fold lower, 3.04 µM
- CS(=O)(=O)NC1CN(C(=O)c2cn3cc(-c4coc(Br)c4)cc(C(F)(F)F)c3n2)C1 [Compound 145, N-{1-[6-(5-Bromo-furan-3-yl)-8-trifluoromethyl-imidazo[1,2-a]pyridine-2-carbonyl]-azetidin-3-yl}-methanesulfonamide] — 16-fold lower, 3.5 µM
- CNC(=O)CNC(=O)Cc1cn2cc(-c3ccoc3)cc(C(F)(F)F)c2n1 [Compound 301, 2-(6-Furan-3-yl-8-trifluoromethyl-imidazo[1,2-a]pyridin-2-yl)-N-methylcarbamoylmethyl-acetamide] — not separable, > 50 µM
- FC(F)(F)c1cc(-c2ccoc2)cn2cc(CN3CC=C(c4nccs4)C3)nc12 [Compound 163, 6-Furan-3-yl-2-(3-thiazol-2-yl-2,5-dihydro-pyrrol-1-ylmethyl)-8-trifluoromethyl-imidazo[1,2-a]pyridine] — within 1.5-fold, 42.4 µM
- CC(=O)NCC(=O)NCc1cn2cc(-c3ccoc3)cc(C(F)(F)F)c2n1 [Compound 240, 2-Acetylamino-N-(6-furan-3-yl-8-trifluoromethyl-imidazo[1,2-a]pyridin-2-ylmethyl)-acetamide] — not separable, > 50 µM
- CC(C)(C)C(NC(=O)c1cn2cc(-c3ccoc3)cc(C(F)(F)F)c2n1)C(=O)O (centres unmarked) [Compound 273, 2-[(6-Furan-3-yl-8-trifluoromethyl-imidazo[1,2-a]pyridine-2-carbonyl)-amino]-3,3-dimethyl-butyric acid] — not separable, > 50 µM
- CC(=O)N1CCCN(C(=O)c2nc3c(C(F)(F)F)cc(-c4ccoc4)cn3c2Cl)CC1 [Compound 325, 1-[4-(3-Chloro-6-furan-3-yl-8-trifluoromethyl-imidazo[1,2-a]pyridine-2-carbonyl)-[1,4]diazepan-1-yl]-ethanone] — not separable, > 50 µM
- CC(O)c1c(C(=O)N2CC=C(c3ncccc3F)CC2)nc2c(C(F)(F)F)cc(-c3ccoc3)cn12 (centres unmarked) [Compound 172, (3-Fluoro-3′,6′-dihydro-2′H-[2,4′]bipyridinyl-1′-yl)-[6-furan-3-yl-3-(1-hydroxy-ethyl)-8-trifluoromethyl-imidazo[1,2-a]pyridin-2-yl]-methanone] — 18-fold lower, 3.11 µM
- O=C(c1nc2c(C(F)(F)F)cc(-c3ccoc3)cn2c1Cl)N1CCC(c2ccccc2F)C(O)C1 (centres unmarked) [Compound 102, (3-Chloro-6-furan-3-yl-8-trifluoromethyl-imidazo[1,2-a]pyridin-2-yl)-[4-(2-fluoro-phenyl)-3-hydroxy-piperidin-1-yl]-methanone] — 1200-fold lower, 0.0469 µM
- CN(C)C(=O)CNC(=O)c1cn2cc(-c3ccoc3)cc(C(F)(F)F)c2n1 [Compound 249, 6-Furan-3-yl-8-trifluoromethyl-imidazo[1,2-a]pyridine-2-carboxylic acid dimethylcarbamoylmethyl-amide] — not separable, > 50 µM
- NC(=O)C(CO)NC(=O)c1cn2cc(-c3ccoc3)cc(C(F)(F)F)c2n1 (centres unmarked) [Compound 279, 6-Furan-3-yl-8-trifluoromethyl-imidazo[1,2-a]pyridine-2-carboxylic acid (1-carbamoyl-2-hydroxy-ethyl)-amide] — not separable, > 50 µM
- O=C(NC1CCC(c2ccccc2)CC1)c1nc2c(C(F)(F)F)cc(-c3ccoc3)cn2c1Cl (centres unmarked) [Compound 193, 3-Chloro-6-furan-3-yl-8-trifluoromethyl-imidazo[1,2-a]pyridine-2-carboxylic acid (4-phenyl-cyclohexyl)-amide] — 22-fold lower, 2.5 µM
- CSCCC(NC(=O)c1cn2cc(-c3ccoc3)cc(C(F)(F)F)c2n1)C(=O)O (centres unmarked) [Compound 266, 2-[(6-Furan-3-yl-8-trifluoromethyl-imidazo[1,2-a]pyridine-2-carbonyl)-amino]-4-methylsulfanyl-butyric acid] — not separable, > 50 µM
- COC(=O)CNC(=O)Cc1cn2cc(-c3ccoc3)cc(C(F)(F)F)c2n1 [Compound 290, [2-(6-Furan-3-yl-8-trifluoromethyl-imidazo[1,2-a]pyridin-2-yl)-acetylamino]-acetic acid methyl ester] — not separable, > 50 µM
- COC(=O)C(CO)NC(=O)c1cn2cc(-c3ccoc3)cc(C(F)(F)F)c2n1 (centres unmarked) [Compound 252, 2-[(6-Furan-3-yl-8-trifluoromethyl-imidazo[1,2-a]pyridine-2-carbonyl)-amino]-3-hydroxy-propionic acid methyl ester] — not separable, > 50 µM
- NC(=O)C1CCCN1C(=O)c1cn2cc(-c3ccoc3)cc(C(F)(F)F)c2n1 (centres unmarked) [Compound 280, 1-(6-Furan-3-yl-8-trifluoromethyl-imidazo[1,2-a]pyridine-2-carbonyl)-pyrrolidine-2-carboxylic acid amide] — not separable, > 50 µM
- C=Cc1cc(C(F)(F)F)c2nc(C(=O)N3CC=C(c4ncccc4F)CC3)c(Cl)n2c1 [Compound 126, (3-Chloro-8-trifluoromethyl-6-vinyl-imidazo[1,2-a]pyridin-2-yl)-(3-fluoro-3′,6′-dihydro-2′H-[2,4′]bipyridinyl-1′-yl)-methanone] — 2000-fold lower, 0.0275 µM
- O=C(Cc1cn2cc(-c3ccoc3)cc(C(F)(F)F)c2n1)N1CCCC1c1cccs1 (centres unmarked) [Compound 188, 2-(6-Furan-3-yl-8-trifluoromethyl-imidazo[1,2-a]pyridin-2-yl)-1-(2-thiophen-2-yl-pyrrolidin-1-yl)-ethanone] — not separable, > 50 µM
- O=C(c1nc2c(C(F)(F)F)cc(-c3ccoc3)cn2c1C1CC1)N1CC=C(c2ncccc2F)CC1 [Compound 149, (3-Cyclopropyl-6-furan-3-yl-8-trifluoromethyl-imidazo[1,2-a]pyridin-2-yl)-(3-fluoro-3′,6′-dihydro-2′H-[2,4′]bipyridinyl-1′-yl)-methanone] — 11-fold lower, 5.08 µM
- O=C(c1nc2c(C(F)(F)F)cc(-c3ccccc3)cn2c1Cl)N1CC=C(c2ncccc2F)CC1 [Compound 124, (3-Chloro-6-phenyl-8-trifluoromethyl-imidazo[1,2-a]pyridin-2-yl)-(3-fluoro-3′,6′-dihydro-2′H-[2,4′]bipyridinyl-1′-yl)-methanone] — 22-fold lower, 2.48 µM
- O=C(O)CNC(=O)c1cn2cc(-c3ccoc3)cc(C(F)(F)F)c2n1 [Compound 264, [(6-Furan-3-yl-8-trifluoromethyl-imidazo[1,2-a]pyridine-2-carbonyl)-amino]-acetic acid] — not separable, > 50 µM
- O=C(c1nc2c(C(F)(F)F)cc(-c3ccoc3)cn2c1Cl)N1CC=C(c2ccccn2)CC1 [Compound 210, (3-Chloro-6-furan-3-yl-8-trifluoromethyl-imidazo[1,2-a]pyridin-2-yl)-(3′,6′-dihydro-2′H-[2,4′]bipyridinyl-1′-yl)-methanone] — 110-fold lower, 0.481 µM
- O=C(Cc1cn2cc(-c3ccoc3)cc(C(F)(F)F)c2n1)N1CCC(c2cccs2)C1 (centres unmarked) [Compound 187, 2-(6-Furan-3-yl-8-trifluoromethyl-imidazo[1,2-a]pyridin-2-yl)-1-(3-thiophen-2-yl-pyrrolidin-1-yl)-ethanone] — 28-fold lower, 2 µM
- O=C(c1nc2c(C(F)(F)F)cc(C3=CCCC3)cn2c1Cl)N1CC=C(c2nccs2)C1 [Compound 150, (3-Chloro-6-cyclopent-1-enyl-8-trifluoromethyl-imidazo[1,2-a]pyridin-2-yl)-(3-thiazol-2-yl-2,5-dihydro-pyrrol-1-yl)-methanone] — 8000-fold lower, 0.00686 µM
- COC(=O)C(CCSC)NC(=O)Cc1cn2cc(-c3ccoc3)cc(C(F)(F)F)c2n1 (centres unmarked) [Compound 291, 2-[2-(6-Furan-3-yl-8-trifluoromethyl-imidazo[1,2-a]pyridin-2-yl)-acetylamino]-4-methylsulfanyl-butyric acid methyl ester] — not separable, > 50 µM
- O=C1NC(=O)C2(CCN(C(=O)c3nc4c(C(F)(F)F)cc(-c5ccoc5)cn4c3Cl)CC2)N1 [Compound 330, 8-(3-Chloro-6-furan-3-yl-8-trifluoromethyl-imidazo[1,2-a]pyridine-2-carbonyl)-1,3,8-triaza-spiro[4.5]decane-2,4-dione] — not separable, > 50 µM
- CS(=O)(=O)N1CCCN(C(=O)c2nc3c(C(F)(F)F)cc(-c4ccoc4)cn3c2Cl)CC1 [Compound 326, (3-Chloro-6-furan-3-yl-8-trifluoromethyl-imidazo[1,2-a]pyridin-2-yl)-(4-methanesulfonyl-[1,4]diazepan-1-yl)-methanone] — 4.8-fold lower, 11.4 µM
